Reference: patent EP2380890A1, “New 7,8-dihydro-1,6-naphthyridin-5(6h)-one-derivatives as PDE4 inhibitors” (Almirall, S.A., priority 2010, dated 2011)

target: PDE4; test: PDE4 assay: [3H] cAMP Scintillation Proximity Assay (SPA) of phosphodiesterase activity; type: biochemical; conditions: yeast extract of recombinant PDE4 enzyme, 30 nM [3H] cAMP, 1 h at room temperature, pH 7.5
Protocol: Measurement of Phosphodiesterase Activity was done using a [3H] cAMP Scintillation Proximity Assay (SPA) (GE Healthcare). Compounds to be tested were disolved in DMSO at a stock concentration of 1mM and serial dilutions were prepared in 50% DMSO to determine IC50s.
The reactions were conducted in 96-well plates (Corning, Ref.3604) at room temperature, in 0.1 mL of reaction buffer containing (final concentrations): 50 mM Tris-HCl, pH 7.5, 8.3 mM MgCl2, 1.7 mM EGTA, 30 nM [3H] cAMP (approximately 150000 dpm/well) with or without the inhibitors. The reaction was initiated by adding yeast extract of recombinant PDE4 enzyme.
Plates were shaken for 1 h at room temperature and the incubation was terminated by adding 50 µL (0.5 mg /well) of SPA ytrium silicate beads (RPNQ 0150; GE Healthcare) in the presence of zinc sulfate. Plates were stored overnight in the dark and read on a TRILUX microtiter plate reader (Perkin Elmer).

Row | Compound | IC50 [nM]
1 | O=C1NCCc2nc(-c3ccccc3)cc(Nc3ccc(C[C@@H](O)CO)cc3)c21 [Example 47, 4-({4-[(2R)-2,3-dihydroxypropyl]phenyl}amino)-2-phenyl-7,8-dihydro-1,6-naphthyridin-5(6H)-one] | 9
2 | COc1cccc(Nc2cc(-c3ccccc3)nc3c2C(=O)NCC3C)c1 (stereo not drawn) [Example 44, 4-[(3-Methoxyphenyl)amino]-8-methyl-2-phenyl-7,8-dihydro-1,6-naphthyridin-5(6H)-one] | 640
3 | O=C1NCCc2nc(-c3ccccc3)cc(Nc3ccc(CCO)cc3)c21 [Example 2, 4-{[4-(2-Hydroxyethyl)phenyl]amino}-2-phenyl-7,8-dihydro-1,6-naphthyridin-5(6H)-one] | 12
4 | COc1cccc(Nc2cc(-c3ccccc3)nc3c2C(=O)NCC3)c1 [Example 1, 4-[(3-Methoxyphenyl)amino]-2-phenyl-7,8-dihydro-1,6-naphthyridin-5(6H)-one] | 1.6
5 | O=C1NCCc2nc(-c3ccccc3)cc(NCc3ccncc3)c21 [Example 17, 2-Phenyl-4-[(pyridin-4-ylmethyl)amino]-7,8-dihydro-1,6-naphthyridin-5(6H)-one] | 25
6 | COc1cccc(Nc2cc(-c3cccc(-c4cccc(C(N)=O)c4)c3)nc3c2C(=O)NCC3)c1 [Example 12, 3'-{4-[(3-Methoxyphenyl)amino]-5-oxo-5,6,7,8-tetrahydro-1,6-naphthyridin-2-yl}biphenyl-3-carboxamide] | 0.28
7 | O=C(NC1CC1)c1cccc(-c2cccc(-c3cc(Nc4cccc5c4ccc[n+]5[O-])c4c(n3)CCNC4=O)c2)c1 [Example 56, N-Cyclopropyl-3'-{4-[(1-oxidoquinolin-5-yl)amino]-5-oxo-5,6,7,8-tetrahydro-1,6-naphthyridin-2-yl}biphenyl-3-carboxamide] | 0.05
8 | COc1cccc(Nc2cc(-c3cccc(-c4ccc(C(=O)O)cc4)c3)nc3c2C(=O)NCC3)c1 [Example 13, 3'-{4-[(3-Methoxyphenyl)amino]-5-oxo-5,6,7,8-tetrahydro-1,6-naphthyridin-2-yl}biphenyl-4-carboxylic acid] | 0.34
9 | COc1cccc(Nc2cc(-c3ccncc3)nc3c2C(=O)NCC3)c1 [Example 22, 4-[(3-Methoxyphenyl)amino]-2-pyridin-4-yl-7,8-dihydro-1,6-naphthyridin-5(6H)-one] | 3.6
10 | NC(=O)c1ccc(Nc2cc(-c3ccccc3)nc3c2C(=O)NCC3)cc1 [Example 18, 4-[(5-Oxo-2-phenyl-5,6,7,8-tetrahydro-1,6-naphthyridin-4-yl)amino]benzamide] | 1.5
11 | O=C1NCCc2nc(-c3ccccc3)cc(Nc3cccc4cnccc34)c21 [Example 37, 4-(Isoquinolin-5-ylamino)-2-phenyl-7,8-dihydro-1,6-naphthyridin-5(6H)-one] | 14
12 | CN(C)CCCNC(=O)c1cccc(-c2cccc(-c3cc(Nc4cccc5ncccc45)c4c(n3)CCNC4=O)c2)c1 [Example 59, N-[3-(Dimethylamino)propyl]-3'-[5-oxo-4-(quinolin-5-ylamino)-5,6,7,8-tetrahydro-1,6-naphthyridin-2-yl]biphenyl-3-carboxamide] | 0.105
13 | O=C(O)c1ccc(Nc2cc(-c3ccccc3)nc3c2C(=O)NCC3)cc1 [Example 25, 4-[(5-Oxo-2-phenyl-5,6,7,8-tetrahydro-1,6-naphthyridin-4-yl)amino]benzoic acid] | 9
14 | COc1cccc(Nc2cc(-c3ccccc3OC)nc3c2C(=O)NCC3)c1 [Example 9, 2-(2-Methoxyphenyl)-4-[(3-methoxyphenyl)amino]-7,8-dihydro-1,6-naphthyridin-5(6H)-one] | 32
15 | O=C1NCCc2nc(-c3ccccc3)cc(Nc3n[nH]c4ncccc34)c21 [Example 41, 2-Phenyl-4-(1H-pyrazolo[3,4-b]pyridin-3-ylamino)-7,8-dihydro-1,6-naphthyridin-5(6H)-one] | 6
16 | O=C1NCCc2nc(-c3ccccc3)cc(Nc3ccc4ncccc4c3)c21 [Example 38, 2-Phenyl-4-(quinolin-6-ylamino)-7,8-dihydro-1,6-naphthyridin-5(6H)-one] | 2.3
17 | COc1cccc(Nc2cc(-c3ccccc3)nc3c2C(=O)NC(C)C3)c1 (stereo not drawn) [Example 26, 4-[(3-Methoxyphenyl)amino]-7-methyl-2-phenyl-7,8-dihydro-1,6-naphthyridin-5(6H)-one] | 117
18 | O=C1NCCc2nc(-c3ccccc3)cc(Nc3cccc4c3ccc[n+]4[O-])c21 [Example 51, 4-[(1-Oxidoquinolin-5-yl)amino]-2-phenyl-7,8-dihydro-1,6-naphthyridin-5(6H)-one] | 0.43
19 | COc1cccc(Nc2cc(-c3cccc(-c4cccc(C(=O)NCCN(C)C)c4)c3)nc3c2C(=O)NCC3)c1 [Example 14, N-[2-(Dimethylamino)ethyl]-3'-{4-[(3-methoxyphenyl)amino]-5-oxo-5,6,7,8-tetrahydro-1,6-naphthyridin-2-yl}biphenyl-3-carboxamide] | 0.23
20 | Cc1c(F)cc(C(=O)NC2CC2)cc1-c1cccc(-c2cc(Nc3cccc4ncccc34)c3c(n2)CCNC3=O)c1 [Example 61, N-Cyclopropyl-5-fluoro-6-methyl-3'-[5-oxo-4-(quinolin-5-ylamino)-5,6,7,8-tetrahydro-1,6-naphthyridin-2-yl]biphenyl-3-carboxamide] | 0.05
21 | O=C1NCCc2nc(-c3ccccc3)cc(Nc3cccc4ncccc34)c21 [Example 24, 2-Phenyl-4-(quinolin-5-ylamino)-7,8-dihydro-1,6-naphthyridin-5(6H)-one] | 0.96
22 | COc1cccc(Nc2cc(-c3cccc(Sc4cccc(OC)c4)c3)nc3c2C(=O)NCC3)c1 [Example 16, 4-[(3-Methoxyphenyl)amino]-2-{3-[(3-methoxyphenyl)thio]phenyl}-7,8-dihydro-1,6-naphthyridin-5(6H)-one] | 1.6
23 | COc1cccc(Nc2cc(C3CC3)nc3c2C(=O)NCC3)c1 [Example 33, 2-Cyclopropyl-4-[(3-methoxyphenyl)amino]-7,8-dihydro-1,6-naphthyridin-5(6H)-one] | 9
24 | COc1cccc(Nc2nc(-c3ccccc3)nc3c2C(=O)NCC3)c1 [Example 32, 4-[(3-Methoxyphenyl)amino]-2-phenyl-7,8-dihydropyrido[4,3-d]pyrimidin-5(6H)-one] | 52
25 | N#C/N=C1\NCCc2nc(-c3ccc(F)c(F)c3)cc(Nc3cccc4ncccc34)c21 [Example 57, [(5Z)-2-(3,4-Difluorophenyl)-4-(quinolin-5-ylamino)-7,8-dihydro-1,6-naphthyridin-5(6H)-ylidene]cyanamide] | 0.9
26 | COc1cccc(Nc2cc(-c3cccc(-c4cc(C(=O)O)ccc4O)c3)nc3c2C(=O)NCC3)c1 [Example 43, 6-Hydroxy-3'-{4-[(3-methoxyphenyl)amino]-5-oxo-5,6,7,8-tetrahydro-1,6-naphthyridin-2-yl}biphenyl-3-carboxylic acid] | 10
27 | O=C(NC1CC1)c1cccc(-c2cccc(-c3cc(Nc4cccc5ncccc45)c4c(n3)CCNC4=O)c2)c1 [Example 49, N-Cyclopropyl-3'-[5-oxo-4-(quinolin-5-ylamino)-5,6,7,8-tetrahydro-1,6-naphthyridin-2-yl]biphenyl-3-carboxamide] | 0.17
28 | COc1cc(Nc2cc(-c3ccccc3)nc3c2C(=O)NCC3)ccc1C(=O)O [Example 19, 2-Methoxy-4-[(5-oxo-2-phenyl-5,6,7,8-tetrahydro-1,6-naphthyridin-4-yl)amino]benzoic acid] | 2.3
29 | COc1cccc(Nc2cc(-c3cccc(OC)c3)nc3c2C(=O)NCC3)c1 [Example 8, 2-(3-Methoxyphenyl)-4-[(3-methoxyphenyl)amino]-7,8-dihydro-1,6-naphthyridin-5(6H)-one] | 8
30 | COc1cccc(Nc2cc(-c3cccc(-c4cc(C(=O)O)ccc4Cl)c3)nc3c2C(=O)NCC3)c1 [Example 35, 6-Chloro-3'-{4-[(3-methoxyphenyl)amino]-5-oxo-5,6,7,8-tetrahydro-1,6-naphthyridin-2-yl}biphenyl-3-carboxylic acid] | 0.81
